According to ChEMBL document CHEMBL4665719, “Development of SKI-349, a dual-targeted inhibitor of sphingosine kinase and microtubule polymerization” (Bioorg Med Chem Lett, 2020):
Activity calls are given as the source filed them. The calls are words filed in the database; no cut-off is given here.

Columns and labels:
[1] = Toxicity in sub-lethal irradiated C57BL/6J mouse xenografted with […] MLL-AF9 cells assessed as RBC level at 1 mg/kg measured after 2 weeks (reference value: 9.8 +/- 0.3 10^6/ml); assay type: organism-based; conditions: in vivo, 336 h
[2] = molecular target: Cyclin-dependent kinase 1 (Homo sapiens) (UniProt P06493); test: Activation of CDK1 in human HL60/VCR cells assessed as activation of caspase 7 at 300 nM after 24 hrs by Western blot analysis; assay type: cell-based; conditions: filed as activator
[3] = molecular target: Glycogen synthase kinase-3 beta (Homo sapiens) (UniProt P49841); test: Inhibition of wild-type human full length GSK3B (M1 to T433 residues) expressed in mammalian expression system assessed as residual activity at 1 uM by Kinomescan method relative to control
Sphingosine kinase 2 = molecular target: T1, Sphingosine kinase 2 (Homo sapiens, UniProt Q9NRA0); test: Binding affinity to SphK2 in HEK293 cells assessed as direct target engagement incubated for 24 hrs followed by thermal denaturation at 61 degreeC by ITDRF-CETSA assay; assay type: cell-based
T1 sequence (Q9NRA0 whole entry): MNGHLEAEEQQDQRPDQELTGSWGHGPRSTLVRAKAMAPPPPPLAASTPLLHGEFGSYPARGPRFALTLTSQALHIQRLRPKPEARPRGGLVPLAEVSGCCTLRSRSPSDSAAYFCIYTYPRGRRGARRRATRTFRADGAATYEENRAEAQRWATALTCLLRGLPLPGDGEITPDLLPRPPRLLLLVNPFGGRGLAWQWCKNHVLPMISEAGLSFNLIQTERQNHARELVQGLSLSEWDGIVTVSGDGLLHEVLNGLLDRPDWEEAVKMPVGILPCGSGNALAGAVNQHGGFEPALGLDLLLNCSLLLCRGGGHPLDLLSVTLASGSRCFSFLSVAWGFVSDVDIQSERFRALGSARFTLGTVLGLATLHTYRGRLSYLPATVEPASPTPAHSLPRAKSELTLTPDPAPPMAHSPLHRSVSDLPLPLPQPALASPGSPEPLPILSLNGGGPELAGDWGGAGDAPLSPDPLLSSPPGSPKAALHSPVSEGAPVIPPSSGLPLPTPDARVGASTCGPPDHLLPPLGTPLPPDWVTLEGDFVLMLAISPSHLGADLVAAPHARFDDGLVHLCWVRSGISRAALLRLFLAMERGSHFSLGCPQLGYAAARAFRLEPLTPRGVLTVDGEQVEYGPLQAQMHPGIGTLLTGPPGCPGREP

[4] = Antitumor activity against human MLL-AF9 xenografted in sub-lethal irradiated C57BL/6J mouse assessed as increase in mouse survival at 1 mg/kg administered every day relative to control; assay type: functional; conditions: MLL-AF9, light or radiation study
[5] = molecular target: T2, Sphingosine kinase 2 (Homo sapiens) (UniProt Q9NRA0); test: Binding affinity to SphK2 in HEK293 cells assessed as induction of thermal stabilization at 1 uM and 48.8 to 68.2 degreeC by CETSA-based Western blot analysis; assay type: cell-based
T2 sequence (whole entry): T1 sequence (Q9NRA0 whole entry)

[6] = Toxicity in sub-lethal irradiated C57BL/6J mouse xenografted with […] MLL-AF9 cells assessed as platelet level at 1 mg/kg measured after 2 weeks (reference value: 687 +/- 53 10^3/ml); assay type: organism-based; conditions: in vivo, 336 h
[7] = Toxicity in sub-lethal irradiated C57BL/6J mouse xenografted with […] MLL-AF9 cells assessed as WBC level at 1 mg/kg measured after 2 weeks (reference value: 6.5 +/- 0.4 10^3/ml); assay type: organism-based; conditions: in vivo, 336 h
Sphingosine kinase 1 [8] = molecular target: T3, Sphingosine kinase 1 (Homo sapiens, UniProt Q9NYA1); test: Binding affinity to SphK1 in HEK293 cells assessed as induction of thermal stabilization at 1 uM and 51 to 63.2 degreeC by CETSA-based Western blot analysis; assay type: cell-based
[9] = molecular target: Glycogen synthase kinase-3 alpha (Homo sapiens) (UniProt P49840); test: Inhibition of wild type full length human GSK3A (M1 to S483 residues) expressed in bacterial expression assessed as residual activity at 1 uM by Kinomescan method relative to control
Sphingosine kinase 1 [10] = molecular target: T3, Sphingosine kinase 1; test: Inhibition of recombinant His6x-tagged human SphK1 expressed in HEK293 cells assessed as reduction in S1P formation using D-erythro-sphingosine as substrate by […]
[11] = Toxicity in sub-lethal irradiated C57BL/6J mouse xenografted with […] MLL-AF9 cells assessed as RBC level at 5 mg/kg measured after 2 weeks (reference value: 9.8 +/- 0.3 10^6/ml); assay type: organism-based; conditions: in vivo, 336 h
[12] = Effect on hematopoiesis in sub-lethal irradiated C57BL/6J mouse xenografted with […] MLL-AF9 cells assessed as CD45.1+/CD34 cells in spleen at 2.5 mg/kg measured after 6 weeks by flow cytometry analysis (reference value: 90 %); assay type: ADME, organism-based; conditions: in vivo, 1008 h
[13] = Cytotoxicity against human HL60/VCR cells assessed as reduction in cell viability after 48 hrs by MTT assay; assay type: functional, cell-based
[14] = Effect on hematopoiesis in sub-lethal irradiated C57BL/6J mouse xenografted with […] MLL-AF9 cells assessed as CD45.1+/CD34 cells in spleen at 1 mg/kg measured after 6 weeks by flow cytometry analysis (reference value: 90 %); assay type: ADME, organism-based; conditions: in vivo, 1008 h
[15] = molecular target: Sphingosine kinase 1/2 (Homo sapiens) (UniProt Q9NRA0+Q9NYA1); test: Inhibition of SPHK1/SPHK2 in human HL-60 cells assessed as C16:0 ceramide level assessed per 10^6 cells at 500 nM after 24 hrs by LC-ESI/MS analysis (reference value: 33.5 +/- 4.1 pmol); assay type: cell-based
[16] = molecular target: Cyclin-dependent kinase 1 (Homo sapiens) (UniProt P06493); test: Activation of CDK1 in human HL-60 cells assessed as induction of Bcl2 phosphorylation at Ser70 residue at 300 nM after 24 hrs by Western blot analysis; assay type: cell-based; conditions: filed as activator
[17] = Toxicity in sub-lethal irradiated C57BL/6J mouse xenografted with […] MLL-AF9 cells assessed as Hb level at 5 mg/kg measured after 2 weeks (reference value: 13.4 +/- 0.5 g/dl); assay type: organism-based; conditions: in vivo, 336 h
[18] = Toxicity in sub-lethal irradiated C57BL/6J mouse xenografted with […] MLL-AF9 cells assessed as HCT level at 5 mg/kg measured after 2 weeks (reference value: 45 +/- 1.4 %); assay type: organism-based; conditions: in vivo, 336 h
[19] = molecular target: Cyclin-dependent kinase 1 (Homo sapiens) (UniProt P06493); test: Activation of CDK1 in human HL-60 cells assessed as activation of caspase 7 at 300 nM after 24 hrs in presence of Ro-3306 by Western blot analysis; assay type: cell-based
[20] = Toxicity in sub-lethal irradiated C57BL/6J mouse xenografted with […] MLL-AF9 cells assessed as platelet level at 5 mg/kg measured after 2 weeks (reference value: 687 +/- 53 10^3/ml); assay type: organism-based; conditions: in vivo, 336 h
[21] = molecular target: Cyclin-dependent kinase 1 (Homo sapiens) (UniProt P06493); test: Activation of CDK1 in human HL-60 cells assessed as activation of caspase 7 at 300 nM after 24 hrs by Western blot analysis; assay type: cell-based; conditions: filed as activator

Chain of Cyclin-dependent kinase 1 (Homo sapiens) (P06493 whole entry, looked up, the tested form may be a part): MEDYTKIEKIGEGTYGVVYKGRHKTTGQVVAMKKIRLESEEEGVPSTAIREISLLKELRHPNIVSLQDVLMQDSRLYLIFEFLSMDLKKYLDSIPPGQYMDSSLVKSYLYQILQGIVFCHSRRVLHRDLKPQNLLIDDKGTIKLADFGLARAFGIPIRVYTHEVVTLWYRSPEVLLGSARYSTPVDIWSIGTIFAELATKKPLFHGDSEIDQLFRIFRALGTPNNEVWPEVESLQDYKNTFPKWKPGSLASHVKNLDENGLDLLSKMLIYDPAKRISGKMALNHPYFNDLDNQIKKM
T3 sequence (Q9NYA1 whole entry, the tested form may be a part): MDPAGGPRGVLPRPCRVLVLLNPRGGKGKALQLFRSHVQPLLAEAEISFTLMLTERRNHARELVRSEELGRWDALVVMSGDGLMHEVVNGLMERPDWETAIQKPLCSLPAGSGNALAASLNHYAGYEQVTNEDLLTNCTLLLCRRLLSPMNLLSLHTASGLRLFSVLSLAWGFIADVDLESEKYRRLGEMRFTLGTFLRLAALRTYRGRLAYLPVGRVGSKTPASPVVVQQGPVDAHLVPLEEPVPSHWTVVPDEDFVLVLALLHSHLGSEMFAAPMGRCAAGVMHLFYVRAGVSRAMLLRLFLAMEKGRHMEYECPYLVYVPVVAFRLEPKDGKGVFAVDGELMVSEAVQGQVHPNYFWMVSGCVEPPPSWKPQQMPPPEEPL
Chain of Sphingosine kinase 1/2 (Homo sapiens) (Q9NYA1 whole entry, looked up, one chain of several): as the sequence (Q9NYA1 whole entry, the tested form may be a part) above
Chain of Glycogen synthase kinase-3 beta (Homo sapiens) (P49841 whole entry, looked up, the tested form may be a part): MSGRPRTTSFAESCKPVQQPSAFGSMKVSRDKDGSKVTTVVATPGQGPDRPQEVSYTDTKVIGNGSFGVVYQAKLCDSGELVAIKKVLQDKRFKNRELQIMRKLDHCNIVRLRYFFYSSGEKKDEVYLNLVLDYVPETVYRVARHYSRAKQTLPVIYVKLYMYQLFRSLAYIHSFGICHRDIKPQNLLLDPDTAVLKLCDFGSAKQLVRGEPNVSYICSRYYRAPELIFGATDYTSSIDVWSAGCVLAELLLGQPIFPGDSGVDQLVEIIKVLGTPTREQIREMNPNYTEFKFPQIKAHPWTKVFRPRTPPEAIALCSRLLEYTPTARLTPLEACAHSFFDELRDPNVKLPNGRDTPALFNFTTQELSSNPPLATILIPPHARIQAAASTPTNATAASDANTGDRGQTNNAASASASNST
Chain of Glycogen synthase kinase-3 alpha (Homo sapiens) (P49840 2-483 limits assumed): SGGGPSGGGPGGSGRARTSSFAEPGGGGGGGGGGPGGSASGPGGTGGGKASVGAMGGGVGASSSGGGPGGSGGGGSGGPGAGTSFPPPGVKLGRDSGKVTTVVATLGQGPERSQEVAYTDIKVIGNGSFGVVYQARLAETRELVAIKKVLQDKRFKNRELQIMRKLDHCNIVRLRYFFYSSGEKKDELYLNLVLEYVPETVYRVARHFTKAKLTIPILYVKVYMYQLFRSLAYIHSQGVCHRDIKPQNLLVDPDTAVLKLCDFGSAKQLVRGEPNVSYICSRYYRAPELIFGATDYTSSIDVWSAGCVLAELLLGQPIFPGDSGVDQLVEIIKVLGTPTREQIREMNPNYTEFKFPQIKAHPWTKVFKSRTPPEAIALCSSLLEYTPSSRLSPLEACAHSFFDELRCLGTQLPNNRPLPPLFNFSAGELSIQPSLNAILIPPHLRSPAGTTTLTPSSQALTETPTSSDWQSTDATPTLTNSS

## COc1ccc(Nc2nc(N)c(C(=O)c3ccc(OC)c(OC)c3)s2)cc1
[1]
  Activity: 9.2 10^6/ml
[2]
  Activity: Active
[3]
  Activity: 27%
Sphingosine kinase 2
  IC50: 60 nM
[4]
  survival at 1 mg/kg: 100%
[5]
  Activity: Active
[6]
  Activity: 1193 10^3/ml
[7]
  Activity: 8.7 10^3/ml
Sphingosine kinase 1 [8]
  Activity: Active
[9]
  Activity: 2.5%
Sphingosine kinase 1 [10]
  IC50: 30000 nM
[11]
  Activity: 9 10^6/ml
[12]
  Activity: 6%
[13]
  IC50: 23 nM
[14]
  Activity: 8%
[15]
  Activity: 87 pmol
[16]
  Activity: Active
[17]
  Activity: 12 g/dL
[18]
  Activity: 41%
[19]
  Activity: inactive
[20]
  Activity: 1089 10^3/ml
[21]
  Activity: Active
